# Structures can show the parent of a compound that is named as a salt.
# Legend:
# [1] = target: T1, Thiosulfate sulfurtransferase (Homo sapiens, UniProt Q16762); assay type: ADME;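 also: native rhodanese of unspecified species, enzyme activity read after 45 min by spectrophotometric detection of Fe(SCN)3 colour, IC50 reflects activity reduction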
# T1 sequence (Q16762 whole entry): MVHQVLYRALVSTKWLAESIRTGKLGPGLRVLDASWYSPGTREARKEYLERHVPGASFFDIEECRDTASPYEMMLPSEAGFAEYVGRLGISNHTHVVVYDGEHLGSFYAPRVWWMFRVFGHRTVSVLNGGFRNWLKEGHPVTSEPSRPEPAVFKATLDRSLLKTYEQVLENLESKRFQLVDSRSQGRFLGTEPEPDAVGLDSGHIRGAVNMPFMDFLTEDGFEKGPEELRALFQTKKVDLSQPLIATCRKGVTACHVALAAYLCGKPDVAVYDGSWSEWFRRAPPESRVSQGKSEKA
# Description: Inhibition of native rhodanese (unknown origin) assessed as reduction in rhodanese enzyme activity after 45 mins by Fe(SCN)3 dye based spectrometric analysis
# Chaperonin GroEL = Chaperonin GroEL (Escherichia coli (strain K12), UniProt P0A6F5);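 also: inhibition of GroEL ATPase activity with ATP as substrate, 60 min incubation, spectrometric read-out, recombinant enzyme produced in Escherichia coli DH5alpha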
# Chaperonin GroEL, sequence (P0A6F5 whole entry): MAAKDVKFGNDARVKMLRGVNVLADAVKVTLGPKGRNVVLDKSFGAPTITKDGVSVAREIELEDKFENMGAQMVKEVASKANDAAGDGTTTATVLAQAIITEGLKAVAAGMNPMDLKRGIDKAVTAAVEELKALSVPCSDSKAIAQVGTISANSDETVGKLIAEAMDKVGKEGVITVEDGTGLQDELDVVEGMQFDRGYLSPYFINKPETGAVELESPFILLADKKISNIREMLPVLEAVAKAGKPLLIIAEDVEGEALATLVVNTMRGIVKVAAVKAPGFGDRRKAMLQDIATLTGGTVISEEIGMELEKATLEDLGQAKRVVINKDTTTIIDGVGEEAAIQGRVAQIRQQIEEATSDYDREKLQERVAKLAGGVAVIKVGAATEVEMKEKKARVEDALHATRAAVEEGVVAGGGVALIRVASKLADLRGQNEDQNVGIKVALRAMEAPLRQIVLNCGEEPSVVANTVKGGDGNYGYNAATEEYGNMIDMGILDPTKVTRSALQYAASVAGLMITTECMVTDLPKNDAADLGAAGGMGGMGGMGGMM
# Description: Inhibition of ATPase activity of Escherichia coli GroEL expressed in Escherichia coliDH5alpha incubated for 60 mins using ATP by spectrometric analysis
# HSP60/HSP10 [2] = target: HSP60/HSP10 (Homo sapiens, UniProt P10809)
# HSP60/HSP10 (Homo sapiens, UniProt P10809), sequence (P10809 whole entry): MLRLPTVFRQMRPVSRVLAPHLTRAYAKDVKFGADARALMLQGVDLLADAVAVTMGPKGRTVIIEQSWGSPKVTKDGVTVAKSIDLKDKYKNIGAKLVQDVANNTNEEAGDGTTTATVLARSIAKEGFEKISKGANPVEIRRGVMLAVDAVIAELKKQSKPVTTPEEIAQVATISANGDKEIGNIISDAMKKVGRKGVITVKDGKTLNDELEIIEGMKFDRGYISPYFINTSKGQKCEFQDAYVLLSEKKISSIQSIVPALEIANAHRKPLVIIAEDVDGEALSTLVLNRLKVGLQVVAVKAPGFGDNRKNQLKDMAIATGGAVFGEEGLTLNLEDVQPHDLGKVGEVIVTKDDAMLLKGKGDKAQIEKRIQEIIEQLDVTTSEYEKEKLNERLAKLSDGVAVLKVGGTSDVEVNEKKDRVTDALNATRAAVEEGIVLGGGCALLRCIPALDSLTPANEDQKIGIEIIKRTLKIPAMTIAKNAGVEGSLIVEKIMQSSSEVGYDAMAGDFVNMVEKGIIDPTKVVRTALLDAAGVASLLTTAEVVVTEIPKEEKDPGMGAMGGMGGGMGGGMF
# HSP60/HSP10 (Homo sapiens, UniProt P10809), sequence (P61604 whole entry, further chain): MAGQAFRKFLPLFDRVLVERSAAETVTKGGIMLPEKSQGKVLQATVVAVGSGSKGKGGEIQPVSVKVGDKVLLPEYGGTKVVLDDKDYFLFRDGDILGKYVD
# Description: (§1) Inhibition of human N-terminal octa-His-tagged HSP60 expressed in Escherichia coli Rosetta(DE3) pLysS/human HSP10 expressed in Escherichia coli Rosetta(DE3) assessed as reduction in HSP60/HSP10-mediated denatured MDH refolding by measuring MDH enzyme activity using sodium mesoxalate as substrate after 40 to 60 mins by malachite green dye based spectrometric analysis
# E. coli GroEL/ES [3] = target: T2, E. coli GroEL/ES (Escherichia coli, UniProt P0A6F5)
# T2 sequence (P0A6F5 whole entry, looked up): as the sequence (P0A6F5 whole entry) above
# Description: (§2) Inhibition of Escherichia coli GroEL expressed in Escherichia coli DH5alpha/Escherichia coli GroES expressed in Escherichia coli BL21 (DE3) assessed as reduction in GroEL/GroES-mediated denatured rhodanese refolding by measuring rhodanese enzyme activity after 45 mins by Fe(SCN)3 dye based spectrometric analysis
# E. coli GroEL/ES [4] = target: T2, E. coli GroEL/ES; remark: listed apart in the source
# Description: (§3) Inhibition of Escherichia coli GroEL expressed in Escherichia coliDH5alpha/Escherichia coli GroES expressed in Escherichia coli BL21 (DE3) assessed as reduction in GroEL/GroES-mediated denatured soluble pig heart MDH refolding by measuring MDH enzyme activity using sodium mesoxalate as substrate after 20 to 40 mins by malachite green dye based spectrometric analysis
# HSP60/HSP10 [5] = target: HSP60/HSP10 (Homo sapiens, UniProt P10809+P61604)
# HSP60/HSP10 (Homo sapiens, UniProt P10809+P61604), sequence (P10809 whole entry): as the sequence (P10809 whole entry) above
# HSP60/HSP10 (Homo sapiens, UniProt P10809+P61604), sequence (P61604 whole entry): as the sequence (P61604 whole entry, further chain) above
# Description: as §1
# GroEL/GroES [6] = target: GroEL/GroES; design: species or system Escherichia coli
# Description: as §2
# GroEL/GroES [7] = target: GroEL/GroES; design: species or system Escherichia coli; remark: listed apart in the source
# Description: as §3
SMILES,IC50 [1] [µM],IC50 (Chaperonin GroEL) [µM],IC50 (HSP60/HSP10 [2]) [µM],IC50 (E. coli GroEL/ES [3]) [µM],IC50 (E. coli GroEL/ES [4]) [µM],IC50 (HSP60/HSP10 [5]) [µM],IC50 (GroEL/GroES [6]) [µM],IC50 (GroEL/GroES [7]) [µM]
CN(C)c1ccc(C(=C2C=CC(=[N+](C)C)C=C2)c2ccc(N(C)C)cc2)cc1 [GENTIAN VIOLET],16,> 250,5.8,15,11,–,–,–
O=c1c(O)c(-c2ccc(O)c(O)c2)oc2c(O)c(O)cc(O)c12 [GOSSYPETIN],0.33,> 250,7.5,0.39,2.1,–,–,–
Oc1c(Cl)cc(Cl)c(Cl)c1Cc1c(O)c(Cl)cc(Cl)c1Cl [HEXACHLOROPHENE],51,153,1.3,4.7,1.4,–,–,–
CC[n+]1c(-c2ccccc2)c2cc(N)ccc2c2ccc(N)cc21 [HOMIDIUM BROMIDE],0.83,> 250,> 100,2.4,> 100,–,–,–
CC1(C)CCC2=C(O1)c1ccccc1C(=O)C2=O [LAPACHONE],0.12,> 250,2.1,0.59,1.3,–,–,–
CC1=CC(=O)c2ccccc2C1=O [MENADIONE],1,> 250,15,2.5,9,–,–,–
O=c1c(O)c(-c2ccc(O)cc2O)oc2cc(O)cc(O)c12 [MORIN],57,> 250,11,5.2,8.5,–,–,–
CC(COc1ccccc1)N(CCCl)Cc1ccccc1 (centres undefined) [PHENOXYBENZAMINE HYDROCHLORIDE],> 100,> 250,78,129,40,–,–,–
CC1=CC(=O)c2c(O)cccc2C1=O [PLUMBAGIN],0.06,> 250,6.3,0.29,3.8,–,–,–
C=CC1=C(C)c2cc3[nH]c(cc4nc(cc5[nH]c(cc1n2)c(C)c5CCC(=O)O)C(CCC(=O)O)=C4C)c(C)c3C=C [PROTOPORPHYRIN],–,> 250,–,–,–,4.9,3,4.4
O=C1c2ccccc2C(=O)c2c(O)c(O)cc(O)c21 [PURPURIN],2.3,> 250,23,4,15,–,–,–
O=C(OC[C@H]1O[C@@H](OC(=O)c2cc(O)c(O)c(OC(=O)c3cc(O)c(O)c(O)c3)c2)[C@H](OC(=O)c2cc(O)c(O)c(OC(=O)c3cc(O)c(O)c(O)c3)c2)[C@@H](OC(=O)c2cc(O)c(O)c(OC(=O)c3cc(O)c(O)c(O)c3)c2)[C@@H]1OC(=O)c1cc(O)c(O)c(OC(=O)c2cc(O)c(O)c(O)c2)c1)c1cc(O)c(O)c(OC(=O)c2cc(O)c(O)c(O)c2)c1 [TANNIC ACID],39,137,3.8,1,0.87,–,–,–
